Molecules are shown by their SMILES. Counter-ions that a name gives are not always drawn.

The subject of this experiment is rat primary neurons. In words: Western blot detection of succinated proteins with anti-2SC antibody, without ester hydrolysis. To be noted: 100 μM DMF, 24 hours, absence of ester hydrolysis. Type of experiment: cell-based. On the procedure: Primary neurons from newborn rat brain cortices were isolated and cultured using an adaptation of methods described previously. Briefly, postnatal day 1 rats were sacrificed by decapitation, the brains were aseptically dissected, and cortices were separated from the rest of the brain in ice-cold Hibernate®-A medium (Life Technologies) containing 2% (v/v) B-27 supplement (Life Technologies) and 0.5 mM glutamine (Invitrogen™). The tissue was minced in fragments of about 1 mm3 with a scalpel and subjected to digestion with 2 mg/ml papain (Worthington) in the supplemented Hibernate®-A medium for 20 minutes at 30° C. in a shaker incubator set at 100 rpm. After thorough trituration through a fire-polished Pasteur pipette, the tissue was allowed to settle for 5 minutes and the supernatant was carefully layered on top of a discontinuous OptiPrep™ (Sigma-Aldrich™) gradient prepared in Hibernate®-A medium; the layers contained 35, 25, 20 and 15% OptiPrep™. […] After a centrifugation at 500 g for 5 min at room temperature, cells were resuspended in Neurobasal™—A medium containing 0.5 mM glutamine, 2% B-27 supplement, and 5 ng/ml bFGF (Invitrogen™); counted and plated on 24-well plates pretreated with 0.01% poly-L-lysine (Sigma-Aldrich™) at a density of 200,000 cells/well. […] The protein content in the different samples was determined by the Lowry assay. […]

With `COC(=O)/C=C/C(=O)OC` [DMF, dimethyl fumarate], the “detection of succinated proteins using the anti-2SC antibody” value is reported as “only one band ˜50 kDa showing a significant increase in intensity”.

(Values after patent US20260133203A1, “DETECTION OF FUMARATE-DERIVED MODIFICATION IN A TEST SAMPLE” (UNIVERSITY OF SOUTH CAROLINA, priority 2017, published 2026).)
